± gives the expanded uncertainty stated by the source.
Assays:
[1] = excess molar enthalpy (molar enthalpy of mixing); xn = mol fraction of the nth substance listed; conditions: 505 K, 101 kPa, Liquid, Calvet calorimetry
[2] = Solid-liquid equilibrium temperature; conditions: 101.3 kPa, Conductivity measurements

## O=S(=O)([O-])O.[Na+] [sulfuric acid, monosodium salt] + O=S(=O)([O-])O.[K+]
[1]; x2 = 0.1135
  excess molar enthalpy: -0.043 ± 0.0043 kcal/mol
[1]; x2 = 0.2137
  excess molar enthalpy: -0.1 ± 0.01 kcal/mol
[1]; x2 = 0.4029
  excess molar enthalpy: -0.126 ± 0.0127 kcal/mol
[1]; x2 = 0.4978
  excess molar enthalpy: -0.145 ± 0.0146 kcal/mol
[1]; x2 = 0.5883
  excess molar enthalpy: -0.143 ± 0.0143 kcal/mol
[1]; x2 = 0.7186
  excess molar enthalpy: -0.123 ± 0.0124 kcal/mol
[1]; x2 = 0.8521
  excess molar enthalpy: -0.069 ± 0.00693 kcal/mol

## O=S(=O)([O-])O.[Na+] [sulfuric acid, monosodium salt]
[2]; Crystal
  Solid-liquid equilibrium temperature: 458 ± 1 K

## O=S(=O)([O-])O.[K+] [hydrogen potassium sulfate]
[2]; Crystal 1
  Solid-liquid equilibrium temperature: 488 ± 1 K
